Patent US11034692B1 (Genentech, Inc., priority 2017, dated 2021)
Where two headings read alike, the source gives them in different places.

Target: HPK1 (Homo sapiens, UniProt Q92918)
Experiment: HPK1 Lantha Binding Assay ("Lanth")
Method in brief: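 TR-FRET tracer displacement with 2 nM GST-tagged kinase, 2 nM Eu-anti-GST antibody and 15 nM Tracer222 at 23 C. Enzyme–antibody preincubated 1 h with compound, then tracer added for 1 h; 340 nm excitation, 615/665 nm emission. Ki from Morrison fit over an 11-point 5-fold dilution.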

[1] = Table B1-2, read-out: HPK1 Ki, L = Lanth
[2] = Table B1-1, read-out: HPK1 Ki (μM) (Lanth)

HPK1, sequence (Q92918 whole entry, looked up): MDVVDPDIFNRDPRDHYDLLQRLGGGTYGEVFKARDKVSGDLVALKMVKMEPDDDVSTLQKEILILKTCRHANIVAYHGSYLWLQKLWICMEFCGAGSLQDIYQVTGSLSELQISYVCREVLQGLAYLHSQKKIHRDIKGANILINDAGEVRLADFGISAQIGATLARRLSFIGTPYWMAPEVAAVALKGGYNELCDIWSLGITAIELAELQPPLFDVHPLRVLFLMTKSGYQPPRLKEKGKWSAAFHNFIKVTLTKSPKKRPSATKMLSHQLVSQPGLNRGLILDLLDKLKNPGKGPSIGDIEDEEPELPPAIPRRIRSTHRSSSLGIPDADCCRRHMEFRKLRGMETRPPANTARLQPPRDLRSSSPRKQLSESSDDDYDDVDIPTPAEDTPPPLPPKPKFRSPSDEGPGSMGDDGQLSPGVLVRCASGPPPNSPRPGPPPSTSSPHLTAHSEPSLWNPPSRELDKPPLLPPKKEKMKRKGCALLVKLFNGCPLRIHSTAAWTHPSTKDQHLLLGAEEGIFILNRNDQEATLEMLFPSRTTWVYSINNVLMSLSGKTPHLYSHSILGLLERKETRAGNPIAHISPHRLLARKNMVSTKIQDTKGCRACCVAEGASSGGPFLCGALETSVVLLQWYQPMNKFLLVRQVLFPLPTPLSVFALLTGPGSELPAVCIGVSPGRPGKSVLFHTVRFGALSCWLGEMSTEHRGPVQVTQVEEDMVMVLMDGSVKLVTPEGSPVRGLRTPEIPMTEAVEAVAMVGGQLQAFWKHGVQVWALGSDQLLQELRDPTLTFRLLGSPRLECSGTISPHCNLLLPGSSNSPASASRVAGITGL

SMILES | Ki [1] | Ki [2]
COC(=O)c1cc(C)c(-c2cc3cc(NC(=O)[C@H]4C[C@@H]4c4cnn(C)c4)ncc3c(N)n2)cn1 (single isomer, unassigned) [Compound 402] | 0.26 nM | 
Cc1cc(N2CCC2=O)ncc1-c1cc2cc(NC(=O)[C@H]3C[C@@H]3c3cnn(C)c3)ncc2c(N)n1 (single isomer, unassigned) [Compound 400] | 1.2 nM | 
COCCN1CC[C@]2(C[C@H]2C(=O)Nc2cc3cc(-c4cnccc4C)nc(N)c3cn2)C1 (racemic) [Compound 127, (±)-trans-N-(8-amino-6-(4-methylpyridin-3-yl)-2,7-naphthyridin-3-yl)-5-(2-methoxyethyl)-5-azaspiro[2.4]heptane-1-carboxamide] |  | 5.3 nM
Cc1cc(-n2cccn2)ncc1-c1cc2cc(NC(=O)[C@H]3C[C@@H]3c3cnn(C)c3)ncc2c(N)n1 (single isomer, unassigned) [Compound 398] | 30 nM | 
CNC(=O)c1ccc(-c2cc3cc(NC(=O)[C@@H]4C[C@@H]4F)ncc3c(N)n2)c(C)c1 (racemic) [Compound 49, 4-(1-amino-6-((cis)-2-fluorocyclopropanecarboxamido)-2,7-naphthyridin-3-yl)-N,3-dimethylbenzamide] |  | 6.82 nM
Cn1cc([C@H]2C[C@@H]2C(=O)Nc2cc3c(Cl)c(-c4cnccc4CCO)nc(N)c3cn2)cn1 (single isomer, unassigned) [Compound 332] |  | 5.62 nM
Nc1nc(-c2cccnc2)cc2cc(NC(=O)[C@@H]3C[C@@H]3F)ncc12 (racemic) [Compound 106, (±)-cis-N-(8-amino-6-(pyridin-3-yl)-2,7-naphthyridin-3-yl)-2-fluorocyclopropane-1-carboxamide] |  | 4.97 nM
Cc1cccc(CC#N)c1-c1cc2cc(NC(=O)[C@@H]3C[C@H]3c3cnn(C)c3)ncc2c(N)n1 (single isomer, unassigned) [Compound 381] | 8.1 nM | 
Cc1cc(-c2ccc[nH]c2=O)ncc1-c1cc2cc(NC(=O)[C@H]3C[C@H]3F)ncc2c(N)n1 (racemic) [Compound 167, (±)-cis-N-(8-amino-6-(4-methyl-6-(2-oxo-1,2-dihydropyridin-3-yl)pyridin-3-yl)-2,7-naphthyridin-3-yl)-2-fluorocyclopropanecarboxamide] |  | 9.4 nM
Cc1ccncc1-c1cc2cc(NC(=O)[C@H]3C[C@]34CCNC4)ncc2c(N)n1 (racemic) [Compound 126, (±)-cis-N-(8-amino-6-(4-methylpyridin-3-yl)-2,7-naphthyridin-3-yl)-5-azaspiro[2.4]heptane-1-carboxamide] |  | 7 nM
N#C[C@@H]1C[C@H]1C(=O)Nc1cc2cc(-c3cncc4c3CCCC4O)nc(N)c2cn1 (mixture of isomers) [Compound 99, (±)-trans-N-(8-amino-6-(8-hydroxy-5,6,7,8-tetrahydroisoquinolin-4-yl)-2,7-naphthyridin-3-yl)-2-cyanocyclopropane-1-carboxamide] |  | 70.7 nM
Nc1nc(N2CCCC2CCO)cc2cc(NC(=O)[C@@H]3C[C@@H]3F)ncc12 (mixture of isomers) [Compound 54, (±)-cis-N-(8-amino-6-(2-(2-hydroxyethyl)pyrrolidin-1-yl)-2,7-naphthyridin-3-yl)-2-fluorocyclopropanecarboxamide] |  | 48.9 nM
Cc1ccncc1-c1cc2cc(NC(=O)[C@H]3C[C@@H]3C(=O)N(C)C)ncc2c(N)n1 (racemic) [Compound 138, (±)-trans-N1-(8-amino-6-(4-methylpyridin-3-yl)-2,7-naphthyridin-3-yl)-N2,N2-dimethylcyclopropane-1,2-dicarboxamide] |  | 32 nM
Cc1ccncc1-c1cc2cc(NC3CCNC3)ncc2c(N)n1 (racemic) [Compound 120, (±)-3-(4-methyl-3-pyridyl)-N6-pyrrolidin-3-yl-2,7-naphthyridine-1,6-diamine] |  | 2400 nM
Cc1ccncc1-c1cc2cc(NC(=O)C(C)C#N)ncc2c(N)n1 (racemic) [Compound 38, N-(8-amino-6-(4-methylpyridin-3-yl)-2,7-naphthyridin-3-yl)-2-cyanopropanamide] |  | 48.4 nM
Cc1cc(C(N)=O)ccc1-c1cc2cc(NC(=O)[C@@H]3C[C@@H]3F)ncc2c(N)n1 (racemic) [Compound 48, (±)-4-(1-amino-6-((cis)-2-fluorocyclopropanecarboxamido)-2,7-naphthyridin-3-yl)-3-methylbenzamide] |  | 10.3 nM
N#C[C@H]1C[C@@H]1C(=O)Nc1cc2cc(-c3cn[nH]c3C(F)(F)F)nc(N)c2cn1 (racemic) [Compound 132, (±)-trans-N-[8-amino-6-[5-(trifluoromethyl)-1H-pyrazol-4-yl]-2,7-naphthyridin-3-yl]-2-cyano-cyclopropanecarboxamide] |  | 6.5 nM
Cc1cccc(Cl)c1-c1cc2cc(NC(=O)[C@H]3C[C@@H]3CC#N)ncc2c(N)n1 (single isomer, unassigned) [Compound 362] | 0.22 nM | 
COc1cc(-c2cc3cc(NC(=O)[C@@H]4C[C@@H]4F)ncc3c(N)n2)c(C)cn1 (racemic) [Compound 55, cis-N-(8-amino-6-(2-methoxy-5-methylpyridin-4-yl)-2,7-naphthyridin-3-yl)-2-fluorocyclopropanecarboxamide] |  | 6.4 nM
CCc1ccncc1-c1cc2cc(NC(=O)NC(C)C(N)=O)ncc2c(N)n1 (racemic) [Compound 34, 2-[[8-amino-6-(4-ethyl-3-pyridyl)-2,7-naphthyridin-3-yl]carbamoylamino]propanamide] |  | 34 nM

Further compounds by falling Ki [2], results first:

Ki [1] | Ki [2] | SMILES
 | 2.8 nM | Cc1ccncc1-c1cc2cc(NC(=O)[C@@H]3C[C@]34CCN(S(C)(=O)=O)C4)ncc2c(N)n1 (racemic) [Compound 148, (±)-trans-N-(8-amino-6-(4-methylpyridin-3-yl)-2,7-naphthyridin-3-yl)-5-(methylsulfonyl)-5-azaspiro[2.4]heptane-1-carboxamide]
 | 2.24 nM | CC(C)c1[nH]ncc1-c1cc2cc(NC(=O)[C@@H]3C[C@H]3C#N)ncc2c(N)n1 (racemic) [Compound 114, (±)-trans-N-(8-amino-6-(5-isopropyl-1H-pyrazol-4-yl)-2,7-naphthyridin-3-yl)-2-cyanocyclopropane-1-carboxamide]
 | 1.87 nM | N#C[C@@H]1C[C@H]1C(=O)Nc1cc2cc(-c3cn[nH]c3)nc(N)c2cn1 (racemic) [Compound 112, (±)-trans-N-(8-amino-6-(1H-pyrazol-4-yl)-2,7-naphthyridin-3-yl)-2-cyanocyclopropane-1-carboxamide]
 | 1.64 nM | Cn1cc(-c2cc3cc(NC(=O)[C@H]4C[C@@H]4F)ncc3c(N)n2)cn1 (racemic) [Compound 8, trans-N-(8-amino-6-(1-methyl-1H-pyrazol-4-yl)-2,7-naphthyridin-3-yl)-2-fluorocyclopropanecarboxamide]
 | 1.52 nM | Nc1nc(-c2cnccc2C2CC2)cc2cc(NC(=O)[C@@H]3C[C@@H]3F)ncc12 (racemic) [Compound 46, (±)-cis-N-(8-amino-6-(4-cyclopropylpyridin-3-yl)-2,7-naphthyridin-3-yl)-2-fluorocyclopropanecarboxamide]
 | 1.5 nM | CC(=O)N1CCC([C@@H]2C[C@H]2C(=O)Nc2cc3cc(-c4cnccc4C)nc(N)c3cn2)CC1 (racemic) [Compound 166, (±)-trans-2-(1-acetylpiperidin-4-yl)-N-(8-amino-6-(4-methylpyridin-3-yl)-2,7-naphthyridin-3-yl)cyclopropanecarboxamide]
 | 0.95 nM | Cc1c(N)cncc1-c1cc2cc(NC(=O)[C@@H]3C[C@H]3C#N)ncc2c(N)n1 (racemic) [Compound 165, (±)-trans-N-(8-amino-6-(5-amino-4-methylpyridin-3-yl)-2,7-naphthyridin-3-yl)-2-cyanocyclopropanecarboxamide]
 | 0.77 nM | Cc1ccncc1-c1cc2cc(NC(=O)C3CC34CN(c3ncccc3C#N)C4)ncc2c(N)n1 (centres unmarked) [Compound 150, N-(8-amino-6-(4-methylpyridin-3-yl)-2,7-naphthyridin-3-yl)-5-(3-cyanopyridin-2-yl)-5-azaspiro[2.3]hexane-1-carboxamide]
 | 0.736 nM | CCc1ccncc1-c1cc2cc(NC(=O)[C@H]3C[C@@H]3COC)ncc2c(N)n1 (racemic) [Compound 53, (±)-trans-N-(8-amino-6-(4-ethylpyridin-3-yl)-2,7-naphthyridin-3-yl)-2-(methoxymethyl) cyclopropane carboxamide]
 | 0.654 nM | Cc1ccncc1-c1cc2cc(NC(=O)[C@@H]3C[C@H]3F)ncc2c(N)n1 (single isomer, unassigned) [Compound 107, (trans)-N-(8-amino-6-(4-methylpyridin-3-yl)-2,7-naphthyridin-3-yl)-2-fluorocyclopropane-1-carboxamide]
 | 0.439 nM | Cc1ccncc1-c1cc2cc(Nc3cc(C)n(CCO)n3)ncc2c(N)n1 [Compound 262, 2-(3-[[8-amino-6-(4-methylpyridin-3-yl)-2,7-naphthyridin-3-yl]amino]-5-methyl-1H-pyrazol-1-yl)ethan-1-ol]
 | 0.31 nM | Cc1ccncc1-c1cc2cc(NC(=O)[C@@H]3C[C@H]3c3cccnc3)ncc2c(N)n1 (racemic) [Compound 131, (±)-trans-N-[8-amino-6-(4-methyl-3-pyridyl)-2,7-naphthyridin-3-yl]-2-(3-pyridyl)cyclopropane carboxamide]
 | 0.295 nM | Cc1ccncc1-c1cc2cc(NC(=O)[C@H]3[C@@H]4CCC(C#N)[C@@H]43)ncc2c(N)n1 (stereo partly drawn) [Compound 230, (1R,5R,6S)—N-(8-amino-6-(4-methylpyridin-3-yl)-2,7-naphthyridin-3-yl)-2-cyanobicyclo[3.1.0]hexane-6-carboxamide]
 | 0.25 nM | Cc1ccncc1-c1cc2cc(NC(=O)Nc3cnn(C(C)C#N)c3)ncc2c(N)n1 (racemic) [Compound 178, 1-[8-amino-6-(4-methyl-3-pyridyl)-2,7-naphthyridin-3-yl]-3-[1-(1-cyanoethyl)pyrazol-4-yl]urea]
 | 0.02 nM | CC(=O)N1CCC(n2cc(Nc3cc4cc(-c5cnccc5C)nc(N)c4cn3)cn2)C1 (racemic) [Compound 218, (+/−)-1-(3-(4-(8-amino-6-(4-methylpyridin-3-yl)-2,7-naphthyridin-3-ylamino)-1H-pyrazol-1-yl)pyrrolidin-1-yl)ethanone]
